The text below walks through data of patent publication US6534542B2, “(2-hydroxy)ethyl-thioureas useful as modulators of α2B adrenergic receptors” (Allergen Sales, Inc., priority 2001, dated 2003).

A value given as a limit tells only on which side of the number the result lay.

One assay addresses T1, alpha2B receptor (Homo sapiens, UniProt P18089).
T1 construct: expressed in transfected cells; host or cells: NIH-3T3
T1 sequence (P18089 1-450): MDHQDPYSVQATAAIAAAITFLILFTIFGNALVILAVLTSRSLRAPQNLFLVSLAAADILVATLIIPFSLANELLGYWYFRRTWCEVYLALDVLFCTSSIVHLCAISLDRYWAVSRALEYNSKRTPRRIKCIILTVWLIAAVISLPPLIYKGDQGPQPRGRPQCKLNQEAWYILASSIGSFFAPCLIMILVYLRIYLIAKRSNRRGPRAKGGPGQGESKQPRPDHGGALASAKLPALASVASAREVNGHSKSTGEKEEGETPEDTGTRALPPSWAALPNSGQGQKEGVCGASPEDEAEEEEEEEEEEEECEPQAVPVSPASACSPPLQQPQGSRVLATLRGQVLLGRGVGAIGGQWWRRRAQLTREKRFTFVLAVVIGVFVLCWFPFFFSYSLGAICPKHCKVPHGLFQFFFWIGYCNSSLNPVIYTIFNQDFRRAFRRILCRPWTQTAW
Description: Receptor Selection and Amplification Technology (RSAT) assay, alpha2B. Format: cell-based. Particulars: NIH-3T3 cells; for EC50: NA = not active at concentrations less than 10 micromolar, read-out: RSAT EC50 (nM) Alpha 2B; for fraction of activity of the standard (brimonidine) attained, Alpha 2B (number in parenthesis): ratio of maximal effect to that of standard full agonist brimonidine. An excerpt: (§1) The compounds of the invention are agonists of α2 adrenergic receptors, particularly they tend to be specific or selective agonists of α2B and/or to a lesser extent α2C adrenergic receptors, in preference over α2A adrenergic receptors. […] Al., 1995, Pharmacol. Toxicol. 76, pp. 308-311 (incorporated herein by reference) and is also described below. Another reference pertinent to this assay is Conklin et al. (1993) Nature 363:274-6, also incorporated herein by reference.
(§2) The RSAT assay measures a receptor-mediated loss of contact inhibition that results in selective proliferation of receptor-containing cells in a mixed population of confluent cells. The increase in cell number is assessed with an appropriate transfected marker gene such as β-galactosidase, the activity of which can be easily measured in a 96-well format. Receptors that activate the G protein, Gq, elicit this response. Alpha2 receptors, which normally couple to Gi, activate the RSAT response when coexpressed with a hybrid Gq protein that has a Gi receptor recognition domain, called Gq/i5^2.
(§3) NIH-3T3 cells are plated at a density of 2×10^6 cells in 15 cm dishes and maintained in Dulbecco's modified Eagle's medium supplemented with 10% calf serum. One day later, cells are cotransfected by calcium phosphate precipitation with mammalian expression plasmids encoding p-SV-β-galactosidase (5-10 μg), receptor (1-2 μg) and G protein (1-2 μg). 40 μg salmon sperm DNA may also be included in the transfection mixture. Fresh media is added on the following day and 1-2 days later, cells are harvested and frozen in 50 assay aliquots. Cells are thawed and 100 μl added to 100 μl aliquots of various concentrations of drugs in triplicate in 96-well dishes. Incubations continue 72-96 hr at 37°. After washing with phosphate-buffered saline, β-galactosidase enzyme activity is determined by adding 200 μl of the chromogenic substrate (consisting of 3.5 mM o-nitrophenyl-β-D-galactopyranoside and 0.5% nonidet P-40 in phosphate buffered saline), incubating overnight at 30 and measuring optical density at 420 nm. The absorbance is a measure of enzyme activity, which depends on cell number and reflects a receptor-mediated cell proliferation. The EC50 and maximal effect of each drug at each alpha2 receptor is determined. The efficacy or intrinsic activity is calculated as a ratio of the maximal effect of the drug to the maximal effect of a standard full agonist for each receptor subtype. Brimonidine, also called […], the chemical structure of which is shown below, is used as the standard agonist for the alpha2A, alpha2B and alpha2C receptors. [drawing 6]
(§4) The results of the RSAT assay with several exemplary compounds of the invention are disclosed in Table 3. […] NA stands for “not active” at concentrations less than 10 micromolar. As is known EC50 is the concentration at which half of a given compound's maximal activity is observed. It can be seen from the table that the compounds of the invention are specific or selective agonists of α2B and/or α2C adrenergic receptors, with no agonist like activity or only with insignificant agonist-like activity on α2A receptors.

Assay [1] has as its system rats with ligated L5 and L6 spinal nerves. The assay is described as follows: Alleviation of chronic pain: tactile allodynia after L5/L6 spinal nerve ligation (von Frey hairs). The note with it: 30 minutes after administration, ±SEM. In kind it is in vivo, rat. An excerpt: A model for chronic pain (in particular peripheral neuropathy such as causalgia) involves the surgical ligation of the L5 (and optionally the L6) spinal nerves on one side in experimental animals. Rats recovering from the surgery gain weight and display a level of general activity similar to that of normal rats. However, these rats develop abnormalities of the foot, wherein the hindpaw is moderately everted and the toes are held together. More importantly, the hindpaw on the side affected by the surgery appears to become sensitive to pain from low-threshold mechanical stimuli, such as that producing a faint sensation of touch in a human, within about 1 week following surgery. This sensitivity to normally non-painful touch is called “tactile allodynia” and lasts for at least two months. The response includes lifting the affected hindpaw to escape from the stimulus, licking the paw and holding it in the air for many seconds. None of these responses is normally seen in the control group.
Rats are anesthetized before surgery. The surgical site is shaved and prepared either with betadine or Novacaine. Incision is made from the thoracic vertebra XIII down toward the sacrum. Muscle tissue is separated from the spinal vertebra (left side) at the L4-S2 levels. The L6 vertebra is located and the transyerse process is carefully removed with a small rongeur to expose the L4-L6 spinal nerves. The L5 and L6 spinal nerves are isolated and tightly ligated with 6-0 silk thread. The same procedure is done on the right side as a control, except no ligation of the spinal nerves is performed. A complete hemostasis is confirmed, then the wounds are sutured. A small amount of antibiotic ointment is applied to the incised area, and the rat is transferred to the recovery plastic cage under a regulated heat-temperature lamp. On the day of the experiment, at least seven days after the surgery, typically six rats per test group are administered the test drugs by intraperitoneal (i.p.) injection or oral gavage. For i.p. injection, the compounds are formulated in approximately 10 to 50% DMSO and given in a volume of 1 ml/kg body weight.
Tactile allodynia is measured prior to and 30 minutes after drug administration using von Frey hairs that are a series of fine hairs with incremental differences in stiffness. Rats are placed in a plastic cage with a wire mesh bottom and allowed to acclimate for approximately 30 minutes. The von Frey hairs are applied perpendicularly through the mesh to the mid-plantar region of the rats' hindpaw with sufficient force to cause slight buckling and held for 6-8 seconds. The applied force has been calculated to range from 0.41 to 15.1 grams. If the paw is sharply withdrawn, it is considered a positive response. A normal animal will not respond to stimuli in this range, but a surgically ligated paw will be withdrawn in response to a 1-2 gram hair. The 50% paw withdrawal threshold is determined using the method of Dixon, […]. The post-drug threshold is compared to the pre-drug threshold and the percent reversal of tactile sensitivity is calculated based on a normal threshold of 15.1 grams. The results are expressed in per cent (%) MPE, where the MPE value reflects the percentage reversal of pain threshold to that of a normal animal (100%). Table 4 below indicates results of this test with Compounds 8, 34 and 40 of the invention, administered i.p., in intrathecal and oral doses.

Another assay concerns the target T2, alpha2C receptor (Homo sapiens, UniProt P18825).
T2 construct: expressed in transfected cells; host or cells: NIH-3T3
T2 sequence (P18825 1-462): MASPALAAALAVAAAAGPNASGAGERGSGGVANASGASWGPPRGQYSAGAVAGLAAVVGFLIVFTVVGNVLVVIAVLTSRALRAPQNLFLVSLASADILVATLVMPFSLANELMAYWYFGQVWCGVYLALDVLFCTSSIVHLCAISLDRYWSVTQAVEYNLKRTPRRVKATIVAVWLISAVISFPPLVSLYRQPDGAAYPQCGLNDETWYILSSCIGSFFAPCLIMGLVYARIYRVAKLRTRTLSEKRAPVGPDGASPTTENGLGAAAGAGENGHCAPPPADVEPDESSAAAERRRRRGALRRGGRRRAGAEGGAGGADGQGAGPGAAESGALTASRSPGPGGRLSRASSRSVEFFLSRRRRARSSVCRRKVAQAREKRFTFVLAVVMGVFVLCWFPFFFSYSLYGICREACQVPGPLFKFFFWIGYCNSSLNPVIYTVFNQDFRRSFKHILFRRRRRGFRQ
The assay is described as follows: Receptor Selection and Amplification Technology (RSAT) assay, alpha2C. In kind it is cell-based. The note with it: NIH-3T3 cells; for EC50: NA = not active at concentrations less than 10 micromolar, read-out: RSAT EC50 (nM) Alpha 2C; for fraction of activity of the standard (brimonidine) attained, Alpha 2C (number in parenthesis): ratio of maximal effect to that of standard full agonist brimonidine.
Excerpt: as §1, §2, §3, §4

With `OCCNC(=S)NCC1CC=CCC1` (stereo not shown) [Compound 8, 1-Cyclohex-3-enylmethyl-3-(2-hydroxy-ethyl)-thiourea], the EC50 on alpha2B receptor came to 17 nM. Moreover, the “fraction of activity of the standard (brimonidine) attained, Alpha 2B (number in parenthesis)” value (from here on “fraction … Alpha 2B (number in parenthesis)”) at alpha2B receptor is listed as “(0.79)”. The “% MPE” value was 1.5 ± 0.9 % MPE in assay [1] (IP dose 10 μg/kg); 47 ± 8.6 % MPE in assay [1] (IP dose 30 μg/kg); 63 ± 9.1 % MPE in assay [1] (IP dose 100 μg/kg); 56 ± 6.5 % MPE in assay [1] (IP dose 300 μg/kg); 52 ± 8.4 % MPE in assay [1] (IP dose 1000 μg/kg); 0.02 ± 0.6 % MPE in assay [1] (Intrathecal dose 30 μg). Moreover, the “% MPE” value in assay [1] (Intrathecal dose 100 μg) was 1.3 ± 0.6 % MPE; in assay [1] (Intrathecal dose 300 μg), 20 ± 5.1 % MPE.

As to `CC1=CCCC1NC(=S)NCCO` (stereo not shown) [Compound 14, 1-(2-Hydroxy-ethyl)-3-(2-methyl-cyclopent-2-enyl)-thiourea], on alpha2B receptor, the EC50 worked out at 97 nM and the “fraction … Alpha 2B (number in parenthesis)” value was “(0.95)”. Further, on alpha2C receptor, the EC50 turned out to be 3000 nM and the “fraction of activity of the standard (brimonidine) attained, Alpha 2C (number in parenthesis)” value (shortened to “fraction … Alpha 2C (number in parenthesis)”) is listed as “(0.3)”.

In the case of `CCCCC1=C(CNC(=S)NCCO)CCC1` [Compound 25, 1-(2-Butyl-cyclopent-1-enylmethyl)-3-(2-hydroxy-ethyl)-thiourea], on alpha2B receptor, the EC50 is over 2000 nM and the “fraction … Alpha 2B (number in parenthesis)” value is listed as “(0.51)”. Besides, on alpha2C receptor, the EC50 was determined as 738 nM and the “fraction … Alpha 2C (number in parenthesis)” value is given as “(0.69)”.

For the compound `CC1=C(CNC(=S)NCCO)CCC1` [Compound 27, 1-(2-Methyl-cyclopent-1-enylmethyl)-3-(2-hydroxy-ethyl)-thiourea], on alpha2B receptor, the EC50 was found to be 135 nM and the “fraction … Alpha 2B (number in parenthesis)” value was “(0.75)”. For the same compound, at alpha2C receptor, the concentration for a half-maximal effect (EC50) was 1730 nM and the “fraction … Alpha 2C (number in parenthesis)” value is recorded as “(0.3)”.

`CC1=C(C)C(NC(=S)NCCO)CCC1` (stereo not shown) [Compound 31, 1-(2,3-Dimethyl-cyclohex-2-enyl)-3-(2-hydroxy-ethyl)-thiourea]: on alpha2B receptor, the EC50 is 6 nM and the “fraction … Alpha 2B (number in parenthesis)” value is on record as “(0.8)”. Also, on alpha2C receptor, the EC50 stood at 253 nM and the “fraction … Alpha 2C (number in parenthesis)” value is reported as “(0.37)”.

With `CCC1=CC(NC(=S)NCCO)CCC1` (stereo not shown) [Compound 32, 1-(2-Hydroxy-ethyl)-3-(3-ethyl-cyclohex-2-enyl)-thiourea], at alpha2B receptor, the EC50 was determined as 96 nM and the “fraction … Alpha 2B (number in parenthesis)” value is listed as “(0.37)”.

Turning to `CC1=CCCCC1NC(=S)NCCO` (stereo not shown) [Compound 33, 1-(2-Hydroxy-ethyl)-3-(2-methyl-cyclohex-2-enyl)-thiourea], on alpha2B receptor, the EC50 amounted to 12 nM and the “fraction … Alpha 2B (number in parenthesis)” value is on record as “(0.71)”. Besides, at alpha2C receptor, the EC50 came to 251 nM and the “fraction … Alpha 2C (number in parenthesis)” value is “(0.98)”.

As for `OCCNC(=S)NC1C=CCCC1` (stereo not shown) [Compound 35, 1-(Cyclohex-2-enyl)-3-(2-hydroxy-ethyl)-thiourea], at alpha2B receptor, the EC50 turned out to be 73 nM and the “fraction … Alpha 2B (number in parenthesis)” value was “(0.58)”. On alpha2C receptor, the EC50 came out at 630 nM and the “fraction … Alpha 2C (number in parenthesis)” value is recorded as “(0.4)”.

For `CC[C@H]1CC[C@H](NC(=S)NCCO)CC1` [Compound 36, (trans)-1-(2-Hydroxy-ethyl)-3-(4-ethyl-cyclohexyl)-thiourea], at alpha2B receptor, the EC50 came to 97 nM and the “fraction … Alpha 2B (number in parenthesis)” value is listed as “(0.53)”.

Consider `CC1CCCCC1NC(=S)NCCO` (stereo not shown) [Compound 41, 1-(2-Methyl-cyclohexyl)-3-(2-hydroxy-ethyl)-thiourea], for which, on alpha2B receptor, the EC50 was determined as 27 nM and the “fraction … Alpha 2B (number in parenthesis)” value is listed as “(0.78)”.
